Experimental data reported in ChEMBL document CHEMBL5727596, “Tetrahydroisoquinoline derivatives useful as inhibitors of diacylglyceride O-acyltransferase 2” (2020).

Target: T1, Diacylglycerol O-acyltransferase 2 (Homo sapiens, UniProt Q96PD7)
T1 sequence (Q96PD7 whole entry): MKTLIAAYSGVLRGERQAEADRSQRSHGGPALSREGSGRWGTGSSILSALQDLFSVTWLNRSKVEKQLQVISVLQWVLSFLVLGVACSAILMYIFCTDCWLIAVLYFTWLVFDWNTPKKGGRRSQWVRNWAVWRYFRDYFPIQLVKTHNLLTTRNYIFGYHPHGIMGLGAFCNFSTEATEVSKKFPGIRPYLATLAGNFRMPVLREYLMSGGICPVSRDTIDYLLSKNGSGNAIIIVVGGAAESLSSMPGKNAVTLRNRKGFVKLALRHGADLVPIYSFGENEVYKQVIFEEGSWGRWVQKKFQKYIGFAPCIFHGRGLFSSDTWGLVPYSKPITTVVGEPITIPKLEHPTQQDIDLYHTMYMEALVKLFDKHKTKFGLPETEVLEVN
Experiment: Enzymatic Activity Assay: DGAT2 activity was determined by measuring the amount of enzymatic product triolein (1,2,3-Tri(cis-9-octadecenoyl)glycerol) using the membrane prep mentioned above. The assay was carried out in deep well 384 plates in a final volume of 40 μL at room temperature. The assay mixture contained the following: assay buffer (100 mM Tris.Cl, pH 7.0, 20 mM MgCl2, 5% ethanol), 25 μM of diolein, 10 μM of oleoyl-CoA and 10 ng/μL of DGAT2 membrane.

Row | SMILES | IC50 [µM]
1 | COc1cccc(-c2ccc(CNC(=O)[C@@H]3C[C@H]3c3ccccc3)c3c2CCN(C(=O)NC2CC2)C3)c1 (mixture of isomers) | 0.0226
2 | COC(=O)c1cccc(-c2ccc(CNC(=O)C3CC3c3ccccc3)c3c2CCN(Cc2ccncc2)C3)c1 (mixture of isomers) | 2.41
3 | COC(=O)c1cccc(-c2ccc(CNC(=O)C3CC3c3ccccc3)c3c2CCN(C(=O)c2ccccn2)C3)c1 (mixture of isomers) | 0.249
4 | COC(=O)c1cccc(-c2ccc(CNC(=O)C3CC3c3ccccc3)c3c2CCN(Cc2cc(C)n(C4CC4)c2C)C3)c1 (mixture of isomers) | 2.8
5 | COc1cccc(-c2ccc(CNC(=O)[C@@H]3C[C@H]3c3ccccc3)c3c2CCN(C(=O)NC(C)C(C)C)C3)c1 (mixture of isomers) | 0.0238
6 | COc1cccc(-c2ccc(CNC(=O)[C@H]3C[C@@H]3c3nc(C)no3)c3c2CCN(C(=O)C(C)(C)O)C3)c1 (relative stereo) | 0.723
7 | CCCCC(CC)CNC(=O)N1CCc2c(-c3cccc(OC)c3)ccc(CNC(=O)[C@@H]3C[C@H]3c3ccccc3)c2C1 (relative stereo) | 0.249
8 | CCCNC(=O)N1CCc2c(-c3cccc(OC)c3)ccc(CNC(=O)[C@@H]3C[C@H]3c3nc(C)no3)c2C1 (relative stereo) | 0.0083
9 | Cc1noc([C@H]2C[C@@H]2C(=O)NCc2ccc(-c3cccc(C(F)(F)F)c3)c3c2CN(C(=O)NC(C)(C)C)CC3)n1 (relative stereo) | 0.0058
10 | Cc1noc([C@@H]2C[C@H]2C(=O)NCc2ccc(-c3cncc(C(C)(C)O)c3)c3c2CN(C(=O)NC(C)(C)C)CC3)n1 (relative stereo) | 0.512
